The source of these data is patent publication US9540337B2, “Gamma-glutamyl transpeptidase inhibitors and methods of use” (The Board of Regents of the University of Oklahoma, priority 2012, dated 2017).

Series [1] addresses T1, Human GGT1 (hGGT) (Homo sapiens, UniProt P19440). Description: D-GpNA Hydrolysis Assay (release of pNA, 405 nm, pH 7.4). Here is the method: Enzyme Isolation: Human GGT1 (P19440), lacking the transmembrane domain, was expressed in Pichia pastoris and isolated as previously described (14). […] One unit of GGT activity was defined as the amount of enzyme that released 1 μmol of paranitroaniline/min at 37° C. at pH 7.4 in the transpeptidation reaction.
The reaction was initiated with the addition of 19 mU GGT. The reaction was incubated at 37° C. and monitored continuously at 405 nm by a Bio-Rad model 680 microplate reader with Microplate Manager 5.2 software (Bio-Rad, Hercules, Calif.).
Data Analysis: Samples in each experiment were run in triplicate. Each inhibitor was evaluated in two or more independent experiments. Double reciprocal plots were generated to assess data quality and determine the correct rate equation for data fitting. Data were fitted using the proper rate equation and the Marquardt-Levenberg algorithm supplied with the Enzfitter program (BIOSOFT, Cambridge, UK). Kinetic parameters with standard errors were estimated using a simple weighting method.
Data adhering to Michaelis-Menten Kinetics were fitted to eq. 1. Data for initial rate patterns with D-, L-GpNA varied at different fixed levels of glygly were fitted to eq. […] Data for competitive and uncompetitive inhibition were fitted to eqs. 3 and 4. Data for the dependence of Vmax and Vmax/KD-GpNA on the concentration of activator were fitted using eq. 5 (25).
In eqs 1-6, Vmax are the initial and maximum rates, respectively, Ka and Kb are Michaelis constants for substrates A and B, respectively, and Kis and Kii are slope and intercept inhibition constants. In eq. 5, a is the value of Vmax or Vmax/KD-GpNA at zero activator/inhibitor, KID is the activation or inhibition constant, and KIN is a constant that causes the parameter to go to a constant value at infinite concentrations of X, the activator/inhibitor. The product a(KID/KIN) is the value of Vmax or Vmax/KD-GpNA at infinite activator/inhibitor (25). Data for noncompetitive inhibition were fitted to eq. 6. Data for the dependence of Vmax and Vmax/KD-GpNA on the concentration of activator were fitted using […].
Enzyme Isolation: hGGT (P19440), lacking the transmembrane domain, was expressed in Pichia pastoris and isolated as previously described. […] One unit of GGT activity was defined as the amount of enzyme that released 1 μmol of paranitroaniline/min at 37° C. at pH 7.4 in the transpeptidation reaction with L-GpNA.
D-GpNA Hydrolysis Assay: The assay was carried out as previously described. […] The reaction was initiated with the addition of 19 mU GGT as determined by the L-GpNA transpeptidation assay. The reaction was incubated at 37° C. and monitored continuously at 405 nm.

The target in series [2] is T1, Human GGT1 (hGGT). Description: L-GpNA Transpeptidation Assay with GlyGly as acceptor. The class given is biochemical. Also noted: lacking the transmembrane domain; made in house; host or cells: Pichia pastoris. Here is the method: Transpeptidation Reaction: The same assay buffer was used for both the hydrolysis reaction and the transpeptidation reaction. The transpeptidation reaction included 40 mM glycylglycine (glygly, Sigma, St. Louis, Mo.) as the acceptor. […] The concentration of L-GpNA was 3 mM for experiments in which the concentration of glygly was varied. To initiate the transpeptidation reaction, 4 mU GGT were added.
1. […] 3 and 4. […] 5 (25).
L-GpNA Transpeptidation Assay: The assay has been described previously. […] The concentration of L-GpNA was 3 mM for experiments in which the concentration of GlyGly was varied. To initiate the transpeptidation reaction, 4 mU GGT were added.

The target in another series is T2, hGGT (Homo sapiens, UniProt P19440).
T2 construct: lacking the transmembrane domain; made in house; host or cells: Pichia pastoris
T2 sequence (P19440 381-569 limits assumed): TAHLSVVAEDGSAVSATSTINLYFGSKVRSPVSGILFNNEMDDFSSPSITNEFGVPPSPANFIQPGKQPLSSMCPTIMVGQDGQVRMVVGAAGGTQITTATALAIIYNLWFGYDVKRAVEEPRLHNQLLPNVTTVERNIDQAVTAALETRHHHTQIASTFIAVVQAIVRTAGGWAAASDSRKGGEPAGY
T2 sequence (P19440 27-380 limits assumed): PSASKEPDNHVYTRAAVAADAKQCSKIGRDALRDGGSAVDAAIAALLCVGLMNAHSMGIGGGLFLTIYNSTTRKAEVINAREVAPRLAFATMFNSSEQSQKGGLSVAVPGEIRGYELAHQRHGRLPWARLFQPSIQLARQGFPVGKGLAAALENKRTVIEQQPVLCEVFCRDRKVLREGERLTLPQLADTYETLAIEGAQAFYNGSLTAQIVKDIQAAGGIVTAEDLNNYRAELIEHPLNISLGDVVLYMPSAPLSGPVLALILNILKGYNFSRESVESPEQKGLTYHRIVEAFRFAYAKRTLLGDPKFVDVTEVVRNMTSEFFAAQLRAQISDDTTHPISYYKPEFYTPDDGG
Nature of the series: L-Glutamate Release Assay (Hydrolysis of GSH). The class given is biochemical. As to conditions: for Ki: GSH hydrolysis, read-out: GSH Kii; for fold more potent than OU749 in inhibiting GSH hydrolysis: relative to OU749. On the procedure: L-Glutamate Release Assay (Hydrolysis of GSH): This assay measures the production of glutamate from the hydrolysis of GSH by GGT enzyme and has been described in detail previously. The concentration of the substrate, GSH, was varied from 5 μM to 20 μM. The concentration of the inhibitors, OU749 and its analogs, were varied from 15.6 μM to 250 μM. The reaction was initiated with the addition of 10 mU hGGT. […] All compounds were also evaluated as inhibitors of glutamate dehydrogenase, the enzyme in the second half of the L-glutamate release assay. None of the compounds in this study inhibited glutamate dehydrogenase.

Series [3] is described as follows: Cytotoxicity in dividing 786-O cells (MTT assay, 72 hours). Particulars: human, 786-o cells, dividing 786-O cells, 72 hours; read-out: LD50. The class given is cell-based, human. Here is the method: (§1) Cell Lines: 786-0 cells (ATCC CRL-1932), a human renal adenocarcinoma cell line, were grown in Dulbecco's Modified Eagle's Medium (DMEM) supplemented with 10% fetal bovine serum (FBS) and penicillin/streptomycin (50 units/ml, 50 μg/ml). NIH3T3 cells (ATCC CRL 1658) which are GGT-negative and NIH3T3 cells expressing hGGT [described previously were grown in DMEM/F12 media supplemented with 5% FBS and 0.2 mg/ml G418.
(§2) Cytotoxicity Assays: 786-0 cells were plated at 10^3 cells/well in a 96-well plate in DMEM supplemented with 10% FBS and penicillin/streptomycin (50 units/ml, 50 μg/ml). After 24 hours, the media was changed to fresh media containing OU749 analogs. A 100 mM stock of OU749 and each of its analogs were made in DMSO then diluted in DMEM. Control wells were treated with equivalent concentrations of DMSO. Cell viability was determined 72 hours after the addition of the inhibitors by the MTT assay. For the toxicity of the OU749 and its analogs in 786-0 cells, all determinations were done in triplicate. The LD50 of each compound and the standard deviation (S.D.) were calculated with a Prism log (inhibitor) versus normalized response (variable slope) curve fit (Prism, GraphPad Software Inc., San Diego, Calif.).

For a further series, the system named is 786-0 cells. Described as above. The class given is cell-based, human. As to conditions: for fold less toxic (cytotoxic) than OU749: LD50 ratio, 786-O cells. Here is the method:
as §1, §2

For series [4], the system named is human GGT in NIH3T3^GGT cells. Description: Catabolism of extracellular GSH by NIH3T3 cells transfected with human GGT. The class given is cell-based. As to conditions: Compound 6 100 μM, 20 μM GSH, one hour; 60 min. On the procedure: as §1
(§3) Catabolism of Extracellular GSH: 786-O and NIH3T3 cells were plated in 96-well plates at a density of 5×10^3 cells/well. After 24 hours, the media was changed to 100 μl cysteine-free DMEM/F12 supplemented with either 20 μM GSH or 20 μM GSH and 100 μM compound 6. After one hour, 50 μl of media was removed and immediately acidified with 5 μl ice-cold 43.1% 5-sulfosalicylic acid. After 10 minutes on ice, the solution was neutralized with 15 μl of 1 M NaOH. The GSH concentration was determined by the method of Tietze.

In series [5] the test system is hGGT expressed on the surface of 786-0 cells. Nature of the series: Catabolism of extracellular GSH by 786-O cells. Particulars: 100 μM Compound 6, 20 μM GSH, one hour; 60 min. The class given is cell-based, human. On the procedure: as §1, §3
The mark [6] stands for this setting: GlyGly varied, 3 mM L-GpNA, Table 2, read-out: Transpeptidation GlyGly Kis.
The mark [7] stands for this setting: L-GpNA varied, 40 mM GlyGly, Table 2, read-out: Transpeptidation L-GpNA Kii.

Where two headings read alike, the source gives them in different places.

T1 sequence (P19440 381-569 limits assumed): as the sequence (P19440 381-569 limits assumed) above
T1 sequence (P19440 27-380 limits assumed): as the sequence (P19440 27-380 limits assumed) above

Consider `Cc1ccc(Cc2nnc(NS(=O)(=O)c3ccc(N)cc3)s2)cc1` [Compound 22], for which the Ki worked out at 31 ± 1 µM at Human GGT1 (hGGT) [1]; 6 ± 1 µM on Human GGT1 (hGGT) [2] (Table 5, read-out: GlyGly with L-GpNA Kis); 30 ± 4 µM on Human GGT1 (hGGT) [2] (Table 5, read-out: L-GpNA with GlyGly Kii); 82 ± 13 µM on hGGT (Table 5). For the same compound, in series [3], the CC50 at 72 h came out at 727 ± 0.02 µM.
Consider `COc1ccc(Cc2nnc(NS(=O)(=O)c3cccc(Cl)c3)s2)cc1` [Compound 3], for which the Ki on Human GGT1 (hGGT) [1] came to 74.9 ± 2.2 µM; at Human GGT1 (hGGT) [2] (setting [6]), 11.9 ± 1.1 µM; at Human GGT1 (hGGT) [2] (setting [7]), 22 ± 0.7 µM; on hGGT (Table 6), 67 ± 6 µM. Besides, the “fold more potent than OU749 in inhibiting GSH hydrolysis” value on hGGT was 5.6 fold. The “fold less toxic (cytotoxic) than OU749” value in the series on 786-0 cells is given as 3 fold. Also, the CC50 at 72 h in series [3] stood at 382 µM.
For the compound `COc1ccc(Cc2nnc(NS(=O)(=O)c3cccc4ccccc34)s2)cc1` [Compound 6], the Ki at Human GGT1 (hGGT) [1] (read-out: Hydrolysis D-GpNA Kii, D-GpNA substrate, Table 2) was determined as 161 ± 4.5 µM; on Human GGT1 (hGGT) [2] (setting [6]) it was 45.7 ± 3.4 µM; on Human GGT1 (hGGT) [2] (setting [7]), 74.9 ± 3.6 µM; on hGGT (Table 6) it was 96 ± 2 µM. In addition, the “fold less effective than OU749 in inhibiting hydrolysis of D-GpNA” value on Human GGT1 (hGGT) [1] (relative to OU749) was 2-5 fold. Further, the “reduction of GSH metabolism in the media” value in series [4] turned out to be 59%. Besides, the “fold more potent than OU749 in inhibiting GSH hydrolysis” value at hGGT came to 4 fold. Also, in series [5], the “block of hGGT catabolism of extracellular GSH” value is 51%. Moreover, the “fold less toxic (cytotoxic) than OU749” value in the series on 786-0 cells is “more than 16 fold”. Further, the CC50 in the series with 786-0 cells (dividing 786-O cells, 72 hours, 4320 min, read-out: LD50 (the source's name)) amounted to 2090 ± 20 µM. In series [3], the CC50 at 72 h is approximately 2100 µM.
